# Measurements: article PMC8957926, “Identification of a Novel Chromate and Selenite Reductase FesR in Alishewanella sp. WH16-1” (Frontiers in Microbiology, 2022)
# What was measured:
# FesR [1] = target: T1, FesR (Alishewanella sp. WH16-1, UniProt A0A0T5PLD3); test: residual Cr(VI) by diphenylcarbazide colorimetry; assay type: biochemical; settings: 1 mmol/L NADPH, pH 7.0, 50 °C, Tris-HCl, 10 min, no added FAD
# T1 construct: Full-length, no signal peptide predicted, GST-tagged (pGEX-6p-1), eluted with glutathione, expressed in E. coli BL21(DE3); predicted 127 kDa with tag; FAD domain 16-520, two 4Fe-4S clusters 525-625
# FesR [2] = target: T2, FesR (Alishewanella sp. WH16-1, UniProt A0A0T5PLD3, R385A); test: enhancement of Cr(VI) and Se(IV) reduction by added FAD; assay type: biochemical; settings: […] FAD, […] NADPH, […] K2CrO4 or Na2SeO3, optimum pH and temperature (pH […] °C)
# T2 construct: gene AAY72_06850; Full-length, no signal peptide predicted, GST-tagged (pGEX-6p-1), eluted with glutathione, expressed in E. coli BL21(DE3); predicted 127 kDa with tag; FAD domain 16-520, two 4Fe-4S clusters 525-625
# T2 sequence (A0A0T5PLD3 1-919 R385A): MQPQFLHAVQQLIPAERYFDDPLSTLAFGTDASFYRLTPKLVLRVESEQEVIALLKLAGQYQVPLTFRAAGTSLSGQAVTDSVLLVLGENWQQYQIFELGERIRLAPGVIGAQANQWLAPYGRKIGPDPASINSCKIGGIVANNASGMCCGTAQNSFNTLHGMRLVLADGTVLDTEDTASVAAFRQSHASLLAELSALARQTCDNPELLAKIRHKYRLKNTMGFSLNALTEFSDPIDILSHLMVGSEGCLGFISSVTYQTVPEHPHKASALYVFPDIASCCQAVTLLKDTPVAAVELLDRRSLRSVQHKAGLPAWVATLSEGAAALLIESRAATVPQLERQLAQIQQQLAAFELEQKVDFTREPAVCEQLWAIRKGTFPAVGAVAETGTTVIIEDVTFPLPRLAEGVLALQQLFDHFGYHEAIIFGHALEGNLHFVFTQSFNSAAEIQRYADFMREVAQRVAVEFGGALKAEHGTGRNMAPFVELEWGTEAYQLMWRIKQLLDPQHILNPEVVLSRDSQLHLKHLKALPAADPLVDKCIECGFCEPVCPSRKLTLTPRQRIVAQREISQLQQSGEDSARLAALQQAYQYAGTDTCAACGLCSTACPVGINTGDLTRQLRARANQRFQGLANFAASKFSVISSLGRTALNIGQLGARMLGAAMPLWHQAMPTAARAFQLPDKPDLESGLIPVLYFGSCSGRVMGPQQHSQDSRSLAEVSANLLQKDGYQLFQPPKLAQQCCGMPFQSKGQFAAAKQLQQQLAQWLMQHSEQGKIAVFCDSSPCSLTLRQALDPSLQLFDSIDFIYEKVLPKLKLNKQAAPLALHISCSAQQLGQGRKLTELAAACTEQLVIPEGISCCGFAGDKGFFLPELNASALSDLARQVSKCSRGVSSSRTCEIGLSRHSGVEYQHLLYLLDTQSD
# O=[Se](O)O = test: purified protein; settings: 1 mmol/L NADPH, pH 7.0, 50 °C, Tris-HCl, 10 min, no added FAD
compound,measurement,setting,value
[O]=[Cr](=[O])([OH])[OH] [Cr(VI)],Km,FesR [1],1680 ± 126 µM
Cc1cc2nc3c(=O)[nH]c(=O)nc-3n(C[C@H](O)[C@H](O)[C@H](O)COP(=O)(O)OP(=O)(O)OC[C@H]3O[C@@H](n4cnc5c(N)ncnc54)[C@H](O)[C@@H]3O)c2cc1C [FAD],enhancement of Cr(VI) and Se(IV) reduction by added FAD,FesR [2],FAD couldn’t enhance the enzyme activity of FesR when the predicted FAD-binding residue Arg385 was mutated
FesR (Alishewanella sp. WH16-1),Km,O=[Se](O)O,1164.0 ± 89.4 µM
